US9937183B2, “Antimicrobial compounds and methods of making and using the same” (priority 2013, dated 2018)
Values after ≈ are worked out from the molar mass of the structure shown. Like-named read-outs stand apart in the source and are kept apart here.

How the values were obtained:
Format in all cases: cell-based
E. coli MG1655 parent = assay: MIC, microtiter-based liquid assay (CLSI); conditions: Escherichia coli
A. baumannii 1705936 = assay: MIC, microtiter-based liquid assay (CLSI); conditions: Acinetobacter baumannii, MDR strain
S. aureus 11540 MRSA = assay: MIC, microtiter-based liquid assay (CLSI); conditions: Staphylococcus aureus
K. pneumoniae 1705966 = assay: MIC, microtiter-based liquid assay (CLSI); conditions: Klebsiella pneumoniae
E. coli 1705878 = assay: MIC, microtiter-based liquid assay (CLSI); conditions: Escherichia coli, MDR strain
B. anthracis = assay: microbe, parasite or virus in culture; conditions: Bacillus anthracis; for MIC50: read-out: B. anthracis MIC50; for MIC90: read-out: B. anthracis MIC90; for MIC: read-out: B. anthracis MIC Range
F. tularensis = assay: microbe, parasite or virus in culture; conditions: Francisella tularensis; for MIC50: read-out: F. tularensis MIC50; for MIC90: read-out: F. tularensis MIC90; for MIC: read-out: F. tularensis MIC Range
B. mallei = assay: microbe, parasite or virus in culture; conditions: Burkholderia mallei; for MIC50: read-out: B. mallei MIC50; for MIC90: read-out: B. mallei MIC90; for MIC: read-out: B. mallei MIC Range
A. baumannii 1705943 = assay: MIC, microtiter-based liquid assay (CLSI); conditions: Acinetobacter baumannii
Y. pestis = assay: microbe, parasite or virus in culture; conditions: Yersinia pestis; for MIC50: read-out: Y. pestis MIC50; for MIC90: read-out: Y. pestis MIC90; for MIC: read-out: Y. pestis MIC Range
E. coli ATCC25922 = assay: MIC, microtiter-based liquid assay (CLSI); conditions: Escherichia coli
P. aeruginosa 1705886 = assay: MIC, microtiter-based liquid assay (CLSI); conditions: Pseudomonas aeruginosa
E. coli CAG12184 TolC = assay: MIC, microtiter-based liquid assay (CLSI); conditions: Escherichia coli, CAG12184TOLC
P. aeruginosa 1705904 = assay: MIC, microtiter-based liquid assay (CLSI); conditions: Pseudomonas aeruginosa, MDR strain
B. pseudomallei = assay: microbe, parasite or virus in culture; conditions: Burkholderia pseudomallei; for MIC50: read-out: B. pseudomallei MIC50; for MIC90: read-out: B. pseudomallei MIC90; for MIC: read-out: B. pseudomallei MIC Range
P. aeruginosa ATCC27853 = assay: MIC, microtiter-based liquid assay (CLSI); conditions: Pseudomonas aeruginosa
[1] = tested on: E. faecium A6349 VanA + LNZ-R; assay: MIC, microtiter-based liquid assay (CLSI); conditions: Enterococcus faecium
[2] = tested on: S. pneumoniae 02J1175 Mef(A); assay: MIC, microtiter-based liquid assay (CLSI); conditions: Streptococcus pneumoniae
K. pneumoniae 1705949 = assay: MIC, microtiter-based liquid assay (CLSI); conditions: Klebsiella pneumoniae, MDR strain
[3] = ATCC25922, read-out: MIC E. coli ATCC25922 + 50% HS
[4] = ATCC25922, read-out: MIC E. coli ATCC25922

## C[C@H](N)CCCc1cc(Cl)c(F)c(-c2cc3cn(-c4ccc([C@H](CCNc5nccs5)NCCCNC(=N)N)cc4)c(=O)nc3[nH]2)c1 [Compound 15]
E. coli MG1655 parent
  MIC: 1 µg/mL (≈ 1.47 µM)
A. baumannii 1705936
  MIC: 1 µg/mL (≈ 1.47 µM)
S. aureus 11540 MRSA
  MIC: 0.5 µg/mL (≈ 0.736 µM)
K. pneumoniae 1705966
  MIC: 0.25 µg/mL (≈ 0.368 µM)
E. coli 1705878
  MIC: 2 µg/mL (≈ 2.94 µM)
B. anthracis
  MIC50: 0.12 µg/mL (≈ 0.177 µM)
  MIC90: 0.12 µg/mL (≈ 0.177 µM)
  MIC: 0.03 to 0.25 µg/mL (≈ 0.0442 to 0.368 µM)
F. tularensis
  MIC50: 0.06 µg/mL (≈ 0.0883 µM)
  MIC90: 0.25 µg/mL (≈ 0.368 µM)
  MIC: 0.03 to 2 µg/mL (≈ 0.0442 to 2.94 µM)
B. mallei
  MIC50: 0.06 µg/mL (≈ 0.0883 µM)
  MIC90: 0.25 µg/mL (≈ 0.368 µM)
  MIC: 0.03 to 0.5 µg/mL (≈ 0.0442 to 0.736 µM)
A. baumannii 1705943
  MIC: 0.5 µg/mL (≈ 0.736 µM)
Y. pestis
  MIC50: 0.5 µg/mL (≈ 0.736 µM)
  MIC90: 1 µg/mL (≈ 1.47 µM)
  MIC: 0.06 to 1 µg/mL (≈ 0.0883 to 1.47 µM)
E. coli ATCC25922; [3]
  MIC: 0.5 µg/mL
E. coli ATCC25922; [4]
  MIC: 0.5 µg/mL (≈ 0.736 µM)
P. aeruginosa 1705886
  MIC: 4 µg/mL (≈ 5.89 µM)
E. coli CAG12184 TolC
  MIC: 0.25 µg/mL (≈ 0.368 µM)
P. aeruginosa 1705904
  MIC: 8 µg/mL (≈ 11.8 µM)
B. pseudomallei
  MIC50: 8 µg/mL (≈ 11.8 µM)
  MIC90: 16 µg/mL (≈ 23.6 µM)
  MIC: 4 to 32 µg/mL (≈ 5.89 to 47.1 µM)
P. aeruginosa ATCC27853
  MIC: 8 µg/mL (≈ 11.8 µM)
[1]
  MIC: 2 µg/mL
[2]
  MIC: 0.25 µg/mL (≈ 0.368 µM)
K. pneumoniae 1705949
  MIC: 1 µg/mL (≈ 1.47 µM)

## C[C@H](N)CCCc1cc(Cl)c(F)c(-c2cc3cn(-c4ccc([C@H](N)CCCCNC(=N)N)cc4)c(=O)nc3[nH]2)c1 [Compound 16]
E. coli MG1655 parent
  MIC: 0.25 µg/mL (≈ 0.441 µM)
A. baumannii 1705936
  MIC: 2 µg/mL (≈ 3.53 µM)
S. aureus 11540 MRSA
  MIC: 0.25 µg/mL (≈ 0.441 µM)
K. pneumoniae 1705966
  MIC: 0.25 µg/mL (≈ 0.441 µM)
E. coli 1705878
  MIC: 0.5 µg/mL (≈ 0.882 µM)
B. anthracis
  MIC50: ≤ 0.03 µg/mL
  MIC90: 0.06 µg/mL (≈ 0.106 µM)
  MIC: 0.03 to 0.12 µg/mL (≈ 0.0529 to 0.212 µM)
F. tularensis
  MIC50: ≤ 0.03 µg/mL
  MIC90: 0.12 µg/mL (≈ 0.212 µM)
  MIC: 0.03 to 1 µg/mL (≈ 0.0529 to 1.76 µM)
B. mallei
  MIC50: ≤ 0.03 µg/mL
  MIC90: 0.06 µg/mL (≈ 0.106 µM)
  MIC: 0.03 to 0.06 µg/mL (≈ 0.0529 to 0.106 µM)
A. baumannii 1705943
  MIC: 0.125 µg/mL (≈ 0.22 µM)
Y. pestis
  MIC50: 0.12 µg/mL (≈ 0.212 µM)
  MIC90: 0.25 µg/mL (≈ 0.441 µM)
  MIC: 0.03 to 0.5 µg/mL (≈ 0.0529 to 0.882 µM)
E. coli ATCC25922; [3]
  MIC: 0.125 µg/mL
E. coli ATCC25922; [4]
  MIC: 0.125 µg/mL (≈ 0.22 µM)
P. aeruginosa 1705886
  MIC: 4 µg/mL (≈ 7.05 µM)
E. coli CAG12184 TolC
  MIC: 0.06 µg/mL (≈ 0.106 µM)
P. aeruginosa 1705904
  MIC: 8 µg/mL (≈ 14.1 µM)
B. pseudomallei
  MIC50: 4 µg/mL (≈ 7.05 µM)
  MIC90: 8 µg/mL (≈ 14.1 µM)
  MIC: 2 to 16 µg/mL (≈ 3.53 to 28.2 µM)
P. aeruginosa ATCC27853
  MIC: 4 µg/mL (≈ 7.05 µM)
[1]
  MIC: 2 µg/mL
[2]
  MIC: 0.25 µg/mL (≈ 0.441 µM)
K. pneumoniae 1705949
  MIC: 2 µg/mL (≈ 3.53 µM)

## C[C@H](NCCCNC(=N)N)c1ccc(-n2cc3cc(-c4cc(CCC[C@@H](N)CF)cc(Cl)c4F)[nH]c3nc2=O)cc1 [Compound 17]
E. coli MG1655 parent
  MIC: 1 µg/mL (≈ 1.71 µM)
A. baumannii 1705936
  MIC: 1 µg/mL (≈ 1.71 µM)
S. aureus 11540 MRSA
  MIC: 0.25 µg/mL (≈ 0.427 µM)
K. pneumoniae 1705966
  MIC: 0.125 µg/mL (≈ 0.214 µM)
E. coli 1705878
  MIC: 2 µg/mL (≈ 3.42 µM)
B. anthracis
  MIC50: 0.25 µg/mL (≈ 0.427 µM)
  MIC90: 0.25 µg/mL (≈ 0.427 µM)
  MIC: 0.03 to 0.5 µg/mL (≈ 0.0513 to 0.855 µM)
F. tularensis
  MIC50: ≤ 0.03 µg/mL
  MIC90: 0.12 µg/mL (≈ 0.205 µM)
  MIC: 0.03 to 1 µg/mL (≈ 0.0513 to 1.71 µM)
B. mallei
  MIC50: 0.06 µg/mL (≈ 0.103 µM)
  MIC90: 0.25 µg/mL (≈ 0.427 µM)
  MIC: 0.03 to 0.25 µg/mL (≈ 0.0513 to 0.427 µM)
A. baumannii 1705943
  MIC: 0.25 µg/mL (≈ 0.427 µM)
Y. pestis
  MIC50: 0.25 µg/mL (≈ 0.427 µM)
  MIC90: 0.5 µg/mL (≈ 0.855 µM)
  MIC: 0.03 to 0.5 µg/mL (≈ 0.0513 to 0.855 µM)
E. coli ATCC25922; [3]
  MIC: 0.5 µg/mL
E. coli ATCC25922; [4]
  MIC: 0.25 µg/mL (≈ 0.427 µM)
P. aeruginosa 1705886
  MIC: 4 µg/mL (≈ 6.84 µM)
E. coli CAG12184 TolC
  MIC: 0.125 µg/mL (≈ 0.214 µM)
P. aeruginosa 1705904
  MIC: 8 µg/mL (≈ 13.7 µM)
B. pseudomallei
  MIC50: 8 µg/mL (≈ 13.7 µM)
  MIC90: 16 µg/mL (≈ 27.3 µM)
  MIC: 1 to 16 µg/mL (≈ 1.71 to 27.3 µM)
P. aeruginosa ATCC27853
  MIC: 8 µg/mL (≈ 13.7 µM)
[1]
  MIC: 0.5 µg/mL
[2]
  MIC: 0.125 µg/mL (≈ 0.214 µM)
K. pneumoniae 1705949
  MIC: 1 µg/mL (≈ 1.71 µM)
